The record followed here is patent publication US6673770B1, “Peptides for the treatment, prophylaxis, diagnosis and monitoring of autoimmune diseases” (Upither B.V., priority 1998, dated 2004).

Read-outs that look alike come from different tables or passages of the source. Ends that are not written are not given here. Peptide text beside a SMILES is read from it.

One assay has as its target DRB1*0401 (Homo sapiens, UniProt P01903+P01911, A100K/A169T/F76Y/I96L/K127E/L162R/M171V/N62H/P40V/Q125Y/R42H/S133A/S149N/S66Y/V115G/V209L/W38E). Briefly: MHC-peptide competition binding assay on isolated DRB1*0401 molecules. On the procedure:
T-cell responses to the selected peptides in patients are analysed by studying T-cell proliferation of peripheral blood lymphocytes (PBL) and synovial fluid derived cells. […] In these human studies the peptides are tested as 15-mers containing the 9-mer sequence of Table 2 as core sequence. […] The MHC binding affinity of the selected peptides is analysed for the most-common MHC class II-arthritis associations. […] The peptide binding affinity is tested in a MHC-peptide competition assay on isolated MHC molecules in the presence of a labelled marker peptide.
# MHC-peptide binding was measured as described in Wauben et al., Int. Immunol. […] Peptide binding is expressed as tire IC50.

For the next assay, the system named is T cell clone A2b. Nature of the assay: Recognition by A2b T-cell clone: proliferation and/or activation marker expression. It is filed as cell-based, Lewis rats. The settings on record: positive: proliferation more than 2 times background in 2 of 4 experiments and/or activation marker upregulation in 2 of 3 experiments. On the procedure:
As an immediate read-out for mimicry peptides T-cell activation is measured by proliferation, TcR downregulation, expression of activation markers, and cytokines responses of clone A2b. In addition A2b-like T cells from arthritic rats are isolated, and activation of such cells is measured by, proliferation, TcR downregulation, expression of activation markers, and cytokines responses. Furthermore, T-cell lines are generated after immunisation with MT/IFA or selected peptides/DDA. The cross-reactive nature of the peptide specific T-cell responses is analysed in vitro by determining the recognition of both the self peptide as well as the mycobacterial hsp65 178-186 peptide. After testing the panel of n=65 peptides for induction of proliferation of T cell clone A2b, and/or induction of expression of activation markers, n=20 peptides (SEQ ID NOs: 15, 19, 20, 21, 22, 23, 24, 26, 30, 31, 32, 33, 35, 49, 51, 61, 63, 65, 67, 69) were considered positive. Criteria for positivity were that in 2 out of 4 experiments the induced proliferation was more than 2 times background proliferation as measured by ^3H-thymidine incorporation, and/or that in 2 out of 3 experiments upregulation of an activation marker was detectable by FACS analysis.

Assay [1] relates to T cells from inguinal and popliteal lymph nodes and spleen. Briefly: T-cell recognition (proliferation) during adjuvant arthritis time course. The assay is classed as cell-based, Lewis rats. The settings on record: positive: proliferation more than 1.5 times background in more than 25% of organs; days 14, 19, 21, 32, 39.
For assay [2], the target named is T1, DRB1*0401 molecules, detergent solubilised (human), P01903.
T1 chain 1: not shown
T1 chain 2: not shown
Nature of the assay: competition assay on detergent solubilised DRB1*0401 (1 µM) with biotinylated HA-marker peptide (100 nM).

The mark [3] stands for this setting: DRB1*0401 1 μM, biotinylated HA-marker peptide 100 nM, peptide 0-256 μM, read-out: DRB1*0401 binding (IC50).

By IC50 is commonly meant the concentration that inhibits the measured activity by half. Regarding `CC(C)C[C@H](NC(=O)[C@H](CCC(=O)O)NC(=O)[C@H](CC(=O)O)NC(=O)[C@@H](NC(=O)[C@@H]1CCCN1C(=O)[C@@H](NC(=O)CNC(=O)[C@H](CO)NC(=O)CNC(=O)CNC(=O)[C@@H](N)CC(C)C)[C@@H](C)O)C(C)C)C(=O)N[C@@H](CC(=O)O)C(=O)N[C@@H](CCCCN)C(=O)N[C@@H](CS)C(=O)N[C@@H](CS)C(=O)O` [SEQ ID NO: 79, LGGSGTPVDELDKCC] (H-LGGSGTPVDELDKCC-OH), the IC50 at DRB1*0401 (setting [3]) is 128 to 256 µM.
Same read-out and setting: as for “EDLVGSASGDLDLGK [SEQ ID NO: 75, EDLVGSASGDLDLGK]”, the figure is 32 to 64 µM.
On to “FFSGSSQLE (listed as Rattus sp.) [SEQ ID NO: 49]”, for which the “Recognition by T cell clone A2b” value in the assay with T cell clone A2b is recorded as “positive”. For the same molecule, the “T-cell recognition during adjuvant arthritis” value in assay [1] is on record as “positive”.
With “GHSPPDDVD (listed as Homo sapiens) [SEQ ID NO: 51]”, the “Recognition by T cell clone A2b” value in the assay with T cell clone A2b is recorded as “positive”. Besides, the “T-cell recognition during adjuvant arthritis” value in assay [1] is “positive”.
For the molecule “GVSASVPVE (listed as Rattus sp.) [SEQ ID NO: 30]”, the “Recognition by T cell clone A2b” value with T cell clone A2b was “positive”. In addition, the “T-cell recognition during adjuvant arthritis” value in assay [1] is given as “positive”.
For “IDTAVLHLD (listed as Rattus sp.) [SEQ ID NO: 33]”, the “Recognition by T cell clone A2b” value with T cell clone A2b was “positive”. The “T-cell recognition during adjuvant arthritis” value in assay [1] is reported as “positive”.
As for “IPTVNENLE (listed as Rattus sp.) [SEQ ID NO: 35]”, the “Recognition by T cell clone A2b” value with T cell clone A2b is “positive”. Besides, the “T-cell recognition during adjuvant arthritis” value in assay [1] is reported as “positive”.
“ISSFCTVVD (listed as Rattus sp.) [SEQ ID NO: 61]”: the “Recognition by T cell clone A2b” value in the assay with T cell clone A2b is listed as “positive”.
Consider “LGSGSTRLE (listed as Homo sapiens) [SEQ ID NO: 40]”, for which, in assay [1], the “T-cell recognition during adjuvant arthritis” value is “positive”.
“LKSLSSQIE (listed as Homo sapiens) [SEQ ID NO: 19]”: the “Recognition by T cell clone A2b” value in the assay on T cell clone A2b is “positive”.
On to “LPSGGDDLE (listed as Rattus sp.) [SEQ ID NO: 22]”, for which the “Recognition by T cell clone A2b” value in the assay on T cell clone A2b is “positive”. Further, in assay [1], the “T-cell recognition during adjuvant arthritis” value is listed as “positive”.
Consider “LPSGGESLE (listed as Rattus sp.) [SEQ ID NO: 21]”, for which, in the assay with T cell clone A2b, the “Recognition by T cell clone A2b” value was “positive”. In assay [1], the “T-cell recognition during adjuvant arthritis” value is “positive”.
Take “LRSINQGLD (listed as Rattus sp.) [SEQ ID NO: 67]”: the “Recognition by T cell clone A2b” value in the assay with T cell clone A2b was “positive”.
As for “LRSPVISID (listed as Homo sapiens) [SEQ ID NO: 23]”, in the assay with T cell clone A2b, the “Recognition by T cell clone A2b” value is on record as “positive”. For the same molecule, in assay [1], the “T-cell recognition during adjuvant arthritis” value is recorded as “positive”.
For the molecule “LRSPVISIE (listed as Mus musculus) [SEQ ID NO: 24]”, in the assay with T cell clone A2b, the “Recognition by T cell clone A2b” value is on record as “positive”. Further, the “T-cell recognition during adjuvant arthritis” value in assay [1] is recorded as “positive”.
As for “MTSLKSVNGQIESLI [SEQ ID NO: 78, MTSLKSVNGQIESLI]”, the IC50 on DRB1*0401 (setting [3]) is 64 to 128 µM.
Consider “NISLVGCIE (listed as Rattus sp.) [SEQ ID NO: 32]”, for which, in the assay on T cell clone A2b, the “Recognition by T cell clone A2b” value was “positive”.
For “PDSAPGEIE (listed as Rattus sp.) [SEQ ID NO: 31]”, the “Recognition by T cell clone A2b” value in the assay with T cell clone A2b is on record as “positive”. Moreover, the “T-cell recognition during adjuvant arthritis” value in assay [1] is on record as “positive”.
On DRB1*0401, “QGTIDTAVLHLDTNL [SEQ ID NO: 72, QGTIDTAVLHLDTNL]” showed an IC50 of 8 to 16 µM.
For “QLLGVSASVPVEHRD [SEQ ID NO: 76, QLLGVSASVPVEHRD]”, on DRB1*0401 (setting [3]), the half-maximal inhibitory concentration (IC50) was in the range of 32 to 64 µM.
The same measure, in the same setting: as for “QPLVQTAVTNIDRPK [SEQ ID NO: 77, QPLVQTAVTNIDRPK]”, the figure is 32 to 64 µM.
As to “SFSPTCVLE (listed as Homo sapiens) [SEQ ID NO: 38]”, in assay [1], the “T-cell recognition during adjuvant arthritis” value is given as “positive”.
Consider “SGSFTTALD (listed as Homo sapiens) [SEQ ID NO: 65]”, for which the “Recognition by T cell clone A2b” value in the assay with T cell clone A2b is “positive”. Also, in assay [1], the “T-cell recognition during adjuvant arthritis” value is given as “positive”.
As for “SGTPVDDLD (listed as Rattus sp.) [SEQ ID NO: 63]”, the “Recognition by T cell clone A2b” value with T cell clone A2b was “positive”. Further, in assay [1], the “T-cell recognition during adjuvant arthritis” value is “positive”.
For “SHSAVCHLE (listed as Homo sapiens) [SEQ ID NO: 36]”, in assay [1], the “T-cell recognition during adjuvant arthritis” value is “positive”.
As for “SHSFPATLE (listed as Homo sapiens) [SEQ ID NO: 47]”, the “T-cell recognition during adjuvant arthritis” value in assay [1] is listed as “positive”.
Take “SYRLRSPVISIDPPS [SEQ ID NO: 74, SYRLRSPVISIDPPS]”: the IC50 at DRB1*0401 (setting [3]) was 16 to 32 µM.
For the molecule “TRSGNCYLD (listed as Homo sapiens) [SEQ ID NO: 54]”, the “T-cell recognition during adjuvant arthritis” value in assay [1] is on record as “positive”.
On to “TTTVSSFSLNVEYAI [SEQ ID NO: 80, TTTVSSFSLNVEYAI]”, for which the IC50 at DRB1*0401 (setting [3]) was in the range of 128 to 256 µM.
Take “VGSASGALD (listed as Rattus sp.) [SEQ ID NO: 20]”: the “Recognition by T cell clone A2b” value in the assay with T cell clone A2b is “positive”. In assay [1], the “T-cell recognition during adjuvant arthritis” value is listed as “positive”.
For “VMSFVNMVE (listed as Homo sapiens) [SEQ ID NO: 69]”, the “Recognition by T cell clone A2b” value with T cell clone A2b is “positive”.
In assay [2], TTTVSSFSLNVEYAI (modifications not checked) [Versican: …] had an IC50 of 128 to 256 µM.
Still for that read-out and setting: as for QPLVQTAVTNIDRPK (modifications not checked) [Fibronectin: …], the figure is 32 to 64 µM; as for FFYFFTGSSQLEFDP (modifications not checked) [MMP-3 (2): …], 8 µM.
The same measure, in the same setting: with SAFWPSLPSYLDAAY (modifications not checked) [MMP-10: …] the figure was 8 to 16 µM; with EDLVGSASGDLDLGK (modifications not checked) [Aggrecan (1): …], 32 to 64 µM; with MTSLKSVNGQIESLI (modifications not checked) [(Pro)collagen α1(III): …], 64 to 128 µM.
Still for that read-out and setting: with LGGSGTPVDELDKCC (not fully specified; cysteine pairing not given here) [Phospholipase A2: …] the figure was 128 to 256 µM; with SYRLRSPVISIDPPS (modifications not checked) [Perlecan: …], 16 to 32 µM.
Take QLLGVSASVPVEHRD (modifications not checked) [Chondroitin sulf.(1): …]: the IC50 in assay [2] lay in the range of 32 to 64 µM.
As for QGTIDTAVLHLDTNL (modifications not checked) [Chondroitin sulf.(4): …], in assay [2], the IC50 is 8 to 16 µM.
In assay [2], SSFWPSLPSGVDAAY (modifications not checked) [MMP-3 (1): …] displayed an IC50 of 16 to 32 µM.
